Measured values: ChEMBL document CHEMBL3046108, “Comparison between antioxidant activity of 2,5-disubstituted 1,3,4-oxadiazoles containing heteroaromatic ring and aromatic ring at 2nd position” (Med Chem Res, 2011)
In brackets after ≈: the same amount, converted by molar mass.

Tests used:
Type in all cases: functional
[1] = system: Radical scavenging activity; test: Antioxidant activity of the compound assessed as DPPH radical scavenging activity after 30 min
[2] = system: Radical scavenging activity; test: Antioxidant activity of the compound assessed as DPPH radical scavenging activity at 4 ug/ml after 30 min
[3] = system: Radical scavenging activity; test: Antioxidant activity of the compound assessed as DPPH radical scavenging activity at 2 ug/ml after 30 min
[4] = system: Radical scavenging activity; test: Antioxidant activity of the compound assessed as DPPH radical scavenging activity at 8 ug/ml after 30 min
[5] = system: Radical scavenging activity; test: Antioxidant activity of the compound assessed as DPPH radical scavenging activity at 6 ug/ml after 30 min
[6] = system: Radical scavenging activity; test: Antioxidant activity of the compound assessed as DPPH radical scavenging activity at 10 ug/ml after 30 min

| IC50 [1] [µg/mL] | Compound | inhibition [2] [%] | inhibition [3] [%] | inhibition [4] [%] | inhibition [5] [%] | inhibition [6] [%] |
| --- | --- | --- | --- | --- | --- | --- |
| 12.08 (≈ 50.7 µM) | Nc1ccc(-c2nnc(-c3ccncc3)o2)cc1 | 16.5 | 8.27 | 33.1 | 24.8 | 41.4 |
| 9.01 (≈ 35 µM) | Clc1ccc(-c2nnc(-c3ccncc3)o2)cc1 | 24.4 | 12.8 | 43.6 | 39 | 53.8 |
| 20.05 (≈ 74.7 µM) | Nc1ccc(-c2nnc(-c3ccccc3N)o2)c(O)c1 | 9.97 | 4.98 | 19.9 | 14.9 | 24.9 |
| 7.76 (≈ 30.8 µM) | Nc1ccccc1-c1nnc(-c2ccccc2N)o1 | 25.8 | 12.1 | 52.1 | 38.6 | 64 |
| 6.99 (≈ 26.1 µM) | O=[N+]([O-])c1cccc(-c2nnc(-c3ccncc3)o2)c1 | 28.7 | 15 | 57.7 | 42.5 | 71.2 |
| 8.26 (≈ 30.4 µM) | Nc1ccccc1-c1nnc(-c2ccc(Cl)cc2)o1 | 23.5 | 12.3 | 50 | 36.2 | 59.5 |
| 16.04 (≈ 56.8 µM) | Nc1ccccc1-c1nnc(-c2cccc([N+](=O)[O-])c2)o1 | 14.2 | 5.51 | 25.2 | 19.7 | 30.8 |
| 12.47 (≈ 46.5 µM) | O=[N+]([O-])c1ccc(-c2nnc(-c3ccncc3)o2)cc1 | 14.9 | 6.66 | 31.5 | 23.2 | 39.8 |
| 5.68 (≈ 32.3 µM) | O=C1O[C@H]([C@@H](O)CO)C(O)=C1O [ASCORBIC ACID] | 35.3 | 18.2 | 69.3 | 53.2 | 87.3 |
| 6 (≈ 22.4 µM) | Cc1cccc(-c2nnc(-c3ccccc3N)o2)c1O | 31.9 | 15.9 | 64.9 | 48.8 | 81.9 |
